Measured values from ChEMBL document CHEMBL3044886, “Chemoselective synthesis, antiproliferative activities, and SAR study of 1H-pyrazol-5-yl-N,N-dimethylformamidines and pyrazolyl-2-azadienes” (2012).

Key:
Type in all cases: functional
Jurkat = experiment: Growth inhibition of Homo sapiens (human) Jurkat cells after 72 hr by MTT assay
[1] = Growth inhibition of Homo sapiens (human) NPC-TW01 cells after 72 hr by MTT assay; conditions: NPC-TW01, 72 h
NCI-H226 = experiment: Growth inhibition of Homo sapiens (human) NCI-H226 cells after 72 hr by MTT assay; conditions: NCI-H226, 72 h

Row | SMILES | GI50 (Jurkat) | GI50 (NCI-H226) | GI50 [1]
1 | Nc1c(C=O)c(-c2ccccc2)nn1-c1ccccc1 | 87.3 µM | > 100 µM | > 100 µM
2 | CN(C)/C=N/c1cc(-c2ccc(Cl)cc2)nn1-c1ccc(Br)cc1 | 84.9 µM | 59.8 µM | 60.7 µM
3 | Nc1c(C=O)c(-c2ccc(Cl)cc2)nn1-c1cccc(Cl)c1 | 78.9 µM | 79.7 µM | > 100 µM
4 | CN(C)/C=N/c1cc(-c2ccccc2)nn1-c1ccccc1 | > 100 µM | > 100 µM | > 100 µM
5 | CN(C)/C=N/c1cc(-c2ccc(Cl)cc2)nn1-c1cccc(Cl)c1 | 74.5 µM | 75.6 µM | 92.7 µM
6 | Cc1ccc(-c2nn(-c3cccc(Cl)c3)c(N)c2C=O)cc1 | 86.3 µM | 71.8 µM | > 100 µM
7 | Nc1cc(-c2ccc(Cl)cc2)nn1-c1ccc(Br)cc1 | 61.3 µM | 58.7 µM | 64.4 µM
8 | Cc1ccc(-c2cc(N)n(-c3cccc(Cl)c3)n2)cc1 | 56.6 µM | 63.5 µM | > 100 µM
9 | CN(C)/C=N/c1c(C=O)c(-c2ccc(Cl)cc2)nn1-c1ccc(Br)cc1 | 38.9 µM | 62.9 µM | > 100 µM
10 | Cc1ccc(-c2cc(/N=C/N(C)C)n(-c3cccc(Cl)c3)n2)cc1 | > 100 µM | 80.9 µM | > 100 µM
11 | Nc1cc(-c2ccccc2)nn1-c1ccccc1 | 83 µM | 72.2 µM | > 100 µM
12 | Cc1ccc(-c2cc(/N=C/N(C)C)n(-c3ccc(Br)cc3)n2)cc1 | > 100 µM | 73.9 µM | > 100 µM
13 | Nc1cc(-c2ccc(Cl)cc2)nn1-c1cccc(Cl)c1 | > 100 µM | 75.1 µM | > 100 µM

Now those with a lower GI50 (NCI-H226), led by results:

Row | GI50 (Jurkat) | GI50 (NCI-H226) | SMILES | GI50 [1]
14 | 7.8 µM | 8.9 µM | Cc1ccc(-c2nn(-c3cccc(Cl)c3)c(/N=C/N(C)C)c2C=O)cc1 | 7.2 µM
15 | 7.7 µM | 9.2 µM | CN(C)/C=N/c1c(C=O)c(-c2ccc(Cl)cc2)nn1-c1cccc(Cl)c1 | 7.4 µM
16 | 34.4 µM | 8.5 µM | Cc1ccc(-c2nn(-c3ccc(Br)cc3)c(N)c2C=O)cc1 | 28.2 µM
17 | 6.7 µM | 8.2 µM | Cc1ccc(-c2nn(-c3ccc(Br)cc3)c(/N=C/N(C)C)c2C=O)cc1 | 6 µM
18 | 45 µM | 54.3 µM | Cc1ccc(-c2cc(N)n(-c3ccc(Br)cc3)n2)cc1 | 80.2 µM
19 |  | 31.4 µM | CN(C)/C=N/c1c(C=O)c(-c2ccccc2)nn1-c1ccccc1 | 9.3 µM
20 | 90.7 µM | 49.1 µM | Nc1c(C=O)c(-c2ccc(Cl)cc2)nn1-c1ccc(Br)cc1 | 59.7 µM
